These results are taken from patent publication US20130072404A1, “APPARATUS AND PROCESSES FOR GENERATING VARIABLE CONCENTRATION OF SOLUTES IN MICRODROPLETS” (UNIVERSITE DE STRASBOURG, priority 2009, published 2013).

What all share (format): biochemical
Experiment [1] addresses T1, β-galactosidase (Escherichia coli, UniProt P00722). Kind of experiment: Standard microplate assay (Example 1 comparison values). Also on record: purchased Sigma-Aldrich Co. As to conditions: read-out: KM of RBG measured in a standard microplate assay.
In experiment [2] the target is T1, β-galactosidase. Briefly: Droplet microfluidic KM measurement, on-chip dilution system (Example 1e). Also noted: purchased Sigma-Aldrich Co. Particulars: 75 s droplet incubation, Michaelis-Menten fit, read-out: KM of RBG in the enzyme/substrate system. As to the method: In the examples, the model systems comprised an enzyme, a substrate, and an inhibitor for IC50 measurements and an enzyme and substrate alone for KM measurements. In all cases the enzyme was β-galactosidase (Sigma-Aldrich Co.), the substrate was resorufin β-D-galactopyranoside (RBG; Invitrogen Corporation), and the inhibitor was phenylethyl β-D-thiogalactopyranoside (PETG; Invitrogen Corporation).
An aqueous phase of 520 μM RBG (the substrate), 100 μM sodium fluorescein, and 5% (v/v) DMSO in PBS were injected into the ‘compound’ input of the microfluidic device (FIG. 4) at a flow rate of 111 μl/hr. A second aqueous phase, 5% (v/v) DMSO in PBS, was injected into the ‘diluent’ input at a flow rate of 389 μl/hr. […]
A series of microdroplets were created containing RBG (and sodium fluorescein) at different concentrations: from zero to 260 μM (50 μM sodium fluorescein) and then from 260 μM to zero. […] The amounts of fluorescent resorufin (liberated by β-galactosidase activity) and sodium fluorescein were measured for each droplet by monitoring fluorescence intensity in the 590-625 and 500-520 nm channels, respectively.
A Michaelis-Menten curve was fitted to the points using the DRC package in R (FIG. 8). […] This value compares favorably to the value measured in a standard microplate assay: 115.6 μM (95% confidence intervals: 102.7-128.6 μM).

In experiment [3] the target is T2, PTP1B (Homo sapiens, UniProt P18031).
T2 construct: purchased EMD Biosciences, Inc
T2 sequence (P18031 1-435): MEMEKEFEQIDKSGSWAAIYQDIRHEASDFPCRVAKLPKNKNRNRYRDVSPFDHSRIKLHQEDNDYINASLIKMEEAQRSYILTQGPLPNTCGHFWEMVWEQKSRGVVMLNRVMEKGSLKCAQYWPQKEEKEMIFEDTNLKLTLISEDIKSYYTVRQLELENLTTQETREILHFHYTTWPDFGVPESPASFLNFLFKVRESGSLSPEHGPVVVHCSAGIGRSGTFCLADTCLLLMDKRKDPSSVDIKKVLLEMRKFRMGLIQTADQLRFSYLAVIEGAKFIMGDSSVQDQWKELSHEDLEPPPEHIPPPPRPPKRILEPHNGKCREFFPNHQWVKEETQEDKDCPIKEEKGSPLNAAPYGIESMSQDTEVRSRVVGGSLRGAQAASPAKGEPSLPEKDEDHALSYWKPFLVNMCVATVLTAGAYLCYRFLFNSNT
Kind of experiment: Microplate dose-response assay, PTP1B. The method, then: For PTP1B, the same approach was used with the following alterations: the inhibitor was diluted in 50 mM HEPES pH 7.2; the solution of enzyme was 10 mg/l PTP1B (EMD Biosciences, Inc., California, USA) in 50 mM HEPES pH 7.2 containing 2 mM DTT, 2 mM EDTA, and 2 g/l BSA; and the solution of substrate was 68 μM FDP in 50 mM HEPES pH 7.2.

The target of experiment [4] is T3, protein tyrosine phosphatase 1B (PTP1B) (Homo sapiens, UniProt P18031).
T3 construct: purchased EMD Biosciences, Inc
T3 sequence (P18031 1-435): T2 sequence (P18031 1-435)
Kind of experiment: High-resolution dose-response screening of PTP1B with a chemical library in droplets, FDP substrate. The method, then:
High-resolution dose-response screening of PTP1B inhibition was performed in a similar manner to the screening of β-galactosidase inhibition (see above), but with the following changes: 50 mM HEPES pH 7.2 was used in place of PBS; the enzyme solution was 20 mg/l PTP1B in 50 mM HEPES pH 7.2 containing 4 mM DTT, 4 mM EDTA, and 4 g/l BSA; and the substrate solution was 68 μM FDP in 50 mM HEPES pH 7.2. In place of the 96-well plate were two 384-well plates containing 704 compounds comprising a subset of the Prestwick Chemical Library® (FIG. 21). These plates were prepared by diluting 1 μl aliquots of the compounds in pure DMSO to 10 μl of 240 μM concentration in 50 mM HEPES pH 7.2 by serial dilution. The compounds occupied columns 1 to 22 of each plate, while the wells in column 23 contained 10 μl of 240 μM sodium suramin (in the same buffer) and the wells in column 24 contained 10 μl of buffer alone.
Injections were performed as described above. […] In this case the dispersion coefficients were assumed to be identical and the compound concentration in each droplet was calculated by assuming a linear correlation between NIR fluorescence and compound concentration.

T1 sequence (P00722 2-1024 limits assumed): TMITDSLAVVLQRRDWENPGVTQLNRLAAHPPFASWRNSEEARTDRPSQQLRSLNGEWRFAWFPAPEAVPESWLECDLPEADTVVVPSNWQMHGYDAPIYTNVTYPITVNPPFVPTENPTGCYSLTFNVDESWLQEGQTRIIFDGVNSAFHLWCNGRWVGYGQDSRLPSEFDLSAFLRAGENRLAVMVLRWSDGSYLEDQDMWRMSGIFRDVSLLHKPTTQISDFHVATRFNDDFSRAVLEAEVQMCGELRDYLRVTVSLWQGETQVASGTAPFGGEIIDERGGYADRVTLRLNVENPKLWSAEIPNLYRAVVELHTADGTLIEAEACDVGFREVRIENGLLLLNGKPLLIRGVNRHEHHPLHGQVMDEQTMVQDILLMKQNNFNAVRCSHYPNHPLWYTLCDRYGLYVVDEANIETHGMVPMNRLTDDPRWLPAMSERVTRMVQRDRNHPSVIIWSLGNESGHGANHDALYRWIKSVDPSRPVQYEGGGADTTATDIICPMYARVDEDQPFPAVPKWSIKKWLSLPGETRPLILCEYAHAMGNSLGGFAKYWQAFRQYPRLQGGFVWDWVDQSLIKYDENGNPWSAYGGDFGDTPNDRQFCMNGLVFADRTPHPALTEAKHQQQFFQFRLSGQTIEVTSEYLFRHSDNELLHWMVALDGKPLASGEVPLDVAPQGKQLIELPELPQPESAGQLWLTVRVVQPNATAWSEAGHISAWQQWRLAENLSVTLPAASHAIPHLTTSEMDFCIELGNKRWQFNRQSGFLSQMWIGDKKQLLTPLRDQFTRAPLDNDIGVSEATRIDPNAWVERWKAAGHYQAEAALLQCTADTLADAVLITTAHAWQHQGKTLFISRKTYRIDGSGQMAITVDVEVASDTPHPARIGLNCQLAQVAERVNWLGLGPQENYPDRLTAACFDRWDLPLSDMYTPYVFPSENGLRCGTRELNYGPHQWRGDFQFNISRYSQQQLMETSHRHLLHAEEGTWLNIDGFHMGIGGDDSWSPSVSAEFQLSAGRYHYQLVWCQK

In the case of `O=c1ccc2nc3ccc(O[C@@H]4O[C@H](CO)[C@H](O)[C@H](O)[C@H]4O)cc3oc-2c1` [RBG, resorufin β-D-galactopyranoside], the Km came out at 116 µM in experiment [1] and 446 µM in experiment [2].
With `O=C(O)c1cc(-c2ccc(F)cc2F)ccc1O` [diflunisal], in experiment [3], the “confirmation of activity in microplate” value is “confirmed in microplate”. Moreover, in experiment [4] (droplets), the “effect on PTP1B in high-resolution dose-response curves” value (“effect on PTP1B” below) was “weak activator”.
For `Cn1cc[nH]c1=S` [methimazole], the “confirmation of activity in microplate” value in experiment [3] is “not confirmed in microplate”. For the same compound, the “effect on PTP1B” value in experiment [4] (droplets) was “weak inhibitor”.
Consider `NC(=O)c1cc[n+](CC2=C(C(=O)[O-])N3C(=O)[C@@H](NC(=O)[C@@H](c4ccccc4)S(=O)(=O)[O-])[C@H]3SC2)cc1.[Na+]` [sodium cefsulodine], for which the “confirmation of activity in microplate” value in experiment [3] was “confirmed in microplate”. In addition, the “effect on PTP1B” value in experiment [4] (droplets) is on record as “strong inhibition of PTP1B”. Also, in experiment [4] (droplets, 4-parameter Hill fit), inhibition was half-maximal at 33 µM (IC50).
For `Cc1ccc(C(=O)Nc2ccc(S(=O)(=O)[O-])c3cc(S(=O)(=O)[O-])cc(S(=O)(=O)[O-])c23)cc1NC(=O)c1cccc(NC(=O)Nc2cccc(C(=O)Nc3cc(C(=O)Nc4ccc(S(=O)(=O)[O-])c5cc(S(=O)(=O)[O-])cc(S(=O)(=O)[O-])c45)ccc3C)c2)c1.[Na+].[Na+].[Na+].[Na+].[Na+].[Na+]` [sodium suramin], in experiment [3], the “confirmation of activity in microplate” value is listed as “confirmed in microplate”. Also, the inhibition (in general, the share of the control response that was lost under treatment) in experiment [4] (50 μM droplets) was found to be 89.9%. Further, the “effect on PTP1B” value in experiment [4] (droplets) was “activate PTP1B at low concentrations (<10 μM) and inhibit it at higher concentrations”.
